How the values were obtained:
[1] = system: coagulase-negative staphylococci; assay: in vitro antibacterial activity (MIC, microbroth dilution); type: cell-based; conditions: compared with the parent compounds (X vs I and VIII vs VII)
[2] = system: Streptococcus pyogenes C203; assay: mouse septicemia (in vivo test); conditions: CD-1 mice infected intraperitoneally; antibiotics administered subcutaneously immediately after infection; calculated on the 7th day from surviving animals (Spearman and Kaerber)
Method: In these in vivo tests control and treatment groups contained five CD-1 mice (Charles River) weighting 18-22 g. They were infected intraperitoneally with 0.5 ml of bacterial suspension prepared by diluting an overnight culture of Streptococcus pyogenes C203 with sterile peptonized saline. Inocula were adjusted so that untreated animals died of septicemia within 48 hours. Antibiotics were administered subcutaneously immediately after infection. On the 7th day, the ED50 in mg/kg was calculated by the method of Spearman and Kaerber (D.J. Finney, "Statistical Methods in Biological Assay", Griffin, page 524, 1952) from the percentages of surviving animals at each dose. The results of the in vivo testing of representative compounds of the invention are summmarized in Table II below: Table II

| Compound | in vitro activity against coagulase-negative staphylococci [1] | ED50 [2] [mg/kg] |
| --- | --- | --- |
| Demannosyl A 40926 complex 6^B-(2-bromoethyl) ester [compound VIII] | better in vitro activity | 0.31 |
| O^42-demannosyl A 40926 6^B-methyl ester [compound X] | better in vitro activity | 0.31 |
| antibiotic A 40926 complex 6^B-monomethyl ester [compound I] | – | 0.18 |
| CN[C@H]1C(=O)N[C@@H]2Cc3ccc(cc3)Oc3cc4cc(c3O)Oc3ccc(cc3Cl)[C@@H](O)[C@@H]3NC(=O)[C@H](NC(=O)[C@@H]4NC(=O)[C@@H](NC2=O)c2cc(cc(O)c2Cl)Oc2cc1ccc2O)c1ccc(O)c(c1)-c1c(O)cc(O)cc1[C@@H](C(=O)O)NC3=O [A 40926 aglycone, reference compound] | – | 6.2 |
| antibiotic A 40926 complex 6^B-(2-hydroxyethyl) ester [compound V] | – | 0.18 |
| antibiotic A 40926 complex 6^B-monoethyl ester [compound II] | – | 0.23 |
